This note sets out measurements from patent US20180369203A1, “METHODS OF TREATING CANCER BY ADMINISTERING A MEK INHIBITOR IN COMBINATION WITH A PROTEASOME INHIBITOR” (The Jackson Laboratory, priority 2015, published 2018).

For data set [1], the system named is HSF1 Ser326. The experiment in a line: HSF1 Ser326 phosphorylation by immunoblotting in HEK293T cells. The following applies: overnight, 20 μM U0126, 20 nM AZD6244, 1 μM FR180204 or 100 nM Sch772984. It counts as cell-based. How it is done: This figure is related to FIG. 3. (A) Validation of phospho-HSF1 Ser326 antibodies. […] (B) MEK blockade impairs HSF1 Ser326 phosphorylation. […] (D-E) S326A mutation impairs HSF1 nuclear translocation. […] (F) Acute MEK depletion diminishes HSF1 proteins. […] HSF1 proteins were detected by immunoblotting. (G) ERK-mediated HSF1 Ser307 phosphorylation depends on MEK. […] Levels of phosphor-HSF1 Ser307 were measured by immunoblotting. (H) HSF1 Ser326 phosphorylation inhibits Ser307 phosphorylation.
(In western blotting, separated proteins are transferred to a membrane and probed.)

Data set [2] has as its system ERK. Kind of data set: Immunoblotting of ERK and MSK1 phosphorylation in HEK293T cells. It counts as cell-based. The following applies: inhibitors overnight.
Protocol: Whole-cell protein extracts were prepared in cold cell-lysis buffer (100 mM NaCl, 30 mM Tris-HCl pH 7.6, 1% Triton X-100, 30 mM NaF, 1 mM EDTA, 1 mM sodium orthovanadate, and Halt™ protease inhibitor cocktail from Thermo Scientific). Proteins were separated on SDS-PAGE gels and transferred to nitrocellulose membranes. Primary antibodies were applied in wash buffer overnight at 4° C. Peroxidase-conjugated secondary antibodies were applied at room temperature for 1 hr, and signals were visualized by SuperSignal West chemiluminescent substrate (Thermo Fisher Scientific), followed by exposure to films.
For data set [3], the system named is HSF1. Kind of data set: Dual HSF1 reporter assay (HSE-SEAP / CMV-GLuc) in HEK293T cells. It counts as cell-based. The following applies: 20 μM U0126, 20 nM AZD6244, 1 μM FR180204 or 100 nM Sch772984. As to the method:
(A) NIH3T3 cells were treated with HS at 43° C. for 30 min, 10 μM tubastatin A for 5 hr, 40 μM VER155008 for 1 hr, 500 nM MG132 for 1 hr, 200 nM 17-DMAG for 1 hr, and 2.5 mM azetidine for 15 min (B) The dual ELK1 reporter system, comprising a serum response element (SRE)-driven secreted embryonic alkaline phosphatase (SEAP) plasmid and a CMV-driven Gaussia luciferase (GLuc) plasmid, was transfected into HEK293T cells. After 24 hr, cells were treatments as in (A) and recovered overnight before measuring reporter activities (mean±SD, n=6, ANOVA). (C and D) NIH3T3 cells were treated with 20 μM U0126 or 20 nM AZD6244 for 3 hr followed by HS and 4-hr recovery. mRNA levels were quantitated by qRT-PCR (mean±SD, n=3, Student's t-test). (E) Immediately after HS, nuclear proteins of NIH3T3 cells treated as in (C) were extracted to measure HSF1-DNA binding by an ELISA-based assay (mean±SD, n=3, ANOVA). (F) HEK293T cells were transfected with dual HSF1 reporter plasmids, a heat-shock element (HSE)-driven SEAP plasmid and a CMV-GLuc plasmid. […] (G) HEK293T cells were treated with different inhibitors overnight. […] After 24 hr, cells were heat shocked at 43° C. for 30 min followed by overnight recovery (mean±SD, n=3, ANOVA). […]
FIGS. 8A-H illustrate that MEK and ERK inversely regulate the PSR. […] Cell viability was measured by a Guava EasyCyte™ flow cytometer using Guava ViaCount™ reagents (mean±SD, n=5, Student's t test). […] Levels of ERK1 and ERK2 mRNAs were quantitated in HEK293T cells transfected with ERK1-targeting siRNAs by qRT-PCR (mean±SD, n=3, ANOVA). […] Levels of ERK2 and ERK1 mRNAs were quantitated in HEK293T cells transfected with ERK2-targeting siRNAs by qRT-PCR (mean±SD, n=3, ANOVA).
Plasmids were transfected with TurboFect transfection reagent (Thermo Scientific). SEAP and luciferase activities in culture supernatants were quantitated using a Ziva® Ultra SEAP Plus Detection Kit (Jaden BioScience) and a Gaussia Luciferase Glow Assay Kit (Thermo Scientific), respectively. Luminescence signals were measured by a VICTORS Multilabel plate reader (PerkinElmer).

Data set [4] concerns A2058 cells. The experiment in a line: In vivo CR administration in A2058 xenograft with or without combined treatment. Further details: species or system NOD/SCID mice. How it is done:
FIGS. 7A-H show amyloidogenesis suppresses tumor growth. (A) Sections of melanomas receiving combined treatment were stained with cleaved caspase 3 antibodies followed by CR staining Arrowheads and arrows indicate condensed and fragmented nuclei, respectively. Scale bar: 50 μm. (B) 1×10^6 A2058 cells were s.c. injected into NOD/SCID mice. After 7 days, mice were treated with 1 mg/30 g CR via i.p. injection one day prior to combined treatment. Tumor volumes were measured weekly (mean±SD, ANOVA). […] Lysis buffer containing CR served as a positive control. (D) Kaplan-Meier survival curves were compared (Log-rank test). (E and F) Both detergent-soluble and -insoluble fractions of tumor lysates were used to quantitate amyloids, 3 tumors per group (mean±SD, n=3, Student's t-test). (G) Proteins were detected by immunoblotting, 3 tumors per group. (H) Schematic depiction of the interplay among MEK, ERK, and HSF1, and its role in regulating proteome stability. Balanced proteostasis suppresses toxic protein aggregation and amyloidogenesis, thereby facilitating tumorigenesis. See also FIG. 14.
This figure is related to FIG. 7. (A) CR treatment stimulates in vivo melanoma growth and renders melanomas partially resistant to combined MEK and proteasome inhibition. Tumors were harvested at sacrifice and weighed (mean±SD, n=10, ANOVA). (B) CR treatment exacerbates body weight loss in tumor-bearing mice. Body weights were recorded before xenografting and at sacrifice. To derive net body weights of melanoma-bearing mice, tumor weights were subtracted from total body weights. Results are presented as body weight changes before and after xenografting (paired Student's t-test).
A2058 cells were s.c. injected into the left flanks of 9-week-old female NOD.CB17-Prkdc/J (NOD/SCID) mice (The Jackson Laboratory). For CR treatment, mice were i.p. injected with PBS or CR one day prior to combined AZD6244 and Bortezomib treatments. Tumor volumes were calculated following the formula 4/3πR^3. For experimental metastasis, engineered A2058 cells were transplanted into 10-week-old female NOD/SCID mice via tail vein injections. All mouse experiments were performed under a protocol approved by The Jackson Laboratory Animal Care and Use Committee.

Data set [5] concerns ERK complexes precipitated from HEK293T cells. The experiment in a line: In vitro kinase assay with immunoprecipitated ERK complexes. It counts as biochemical. The following applies: 1000 ng MBP. How it is done: Co-expressed GFP proteins served as internal controls. […] See also FIG. 10.
Samples were boiled for 5 min to stop reactions.

Turning to `O=C(Nc1ccc2[nH]nc(-c3ccncc3)c2c1)[C@@H]1CCN(CC(=O)N2CCN(c3ccc(-c4ncccn4)cc3)CC2)C1` [Sch772984], in data set [1], the “HSF1 Ser326 phosphorylation” value was “enhances”. The ERK phosphorylation entry in data set [2] was “suppressed”. The “transcriptional activation of HSF1” value in data set [3] was “activated”.

Take `Nc1c(/N=N/c2ccc(-c3ccc(/N=N/c4cc(S(=O)(=O)O)c5ccccc5c4N)cc3)cc2)cc(S(=O)(=O)O)c2ccccc12` [CR, Congo red]: the melanoma growth entry in data set [4] (1 mg/30 g CR i.p.) is “accelerated”. Also, the “tumor suppression imposed by combined MEK and proteasome inhibition” value in data set [4] (1 mg/30 g CR i.p. one day prior to combined treatment) is “potently antagonized”. Besides, in data set [4] (CR treatment), the “amyloids in tumor tissues” value is listed as “reduced”, the animal survival result is recorded as “shortened”, the body conditions result is given as “deteriorated” and the tumor masses result was “enlarged”. Moreover, in data set [4] (CR treatment), the ubiquitination in tumors entry is recorded as “did not diminish”. The “caspase 3 cleavage in tumors” value in data set [4] (CR-treated tumors) is “reduced”. The “penetration of CR into tumor tissues” value in data set [4] (absorbance of tumor lysates) is “intense light absorption of tumor lysates at 498 nm”.

With `Nc1[nH]nc2nnc(-c3c(-c4ccccc4)nn4ccccc34)cc12` [FR180204], in data set [1], the “HSF1 Ser326 phosphorylation” value was “enhances”. Further, in data set [2], the ERK phosphorylation entry is on record as “promoted”. Further, the “transcriptional activation of HSF1” value in data set [3] is listed as “activated”. The “phosphorylation of myelin basic protein (MBP) by precipitated ERK complexes” value in data set [5] was “blocked”.
